Source: ChEMBL document CHEMBL6087387, “Carbon Monoxide as a Potential Therapeutic Agent: A Molecular Analysis of Its Safety Profiles” (J Med Chem, 2024)

Key:
[1] = Plasma concentration in rat at 250 mg/kg, po after 2 hrs; format: ADME, organism-based
[2] = Plasma concentration in rat at 100 mg/kg, po after 2 hrs; format: ADME, organism-based
[3] = Plasma concentration in rat at 30 mg/kg, po after 2 hrs

SMILES | concentration at 2 h [1] [µM] | concentration at 2 h [2] [µM] | also measured
O=C(O)c1cn(C2CC2)c2cc(N3CCNCC3)c(F)cc2c1=O [CIPROFLOXACIN] | 3.8 |  | 
COc1cccc2c1C(=O)c1c(O)c3c(c(O)c1C2=O)C[C@@](O)(C(=O)CO)C[C@@H]3O[C@H]1C[C@H](N)[C@H](O)[C@H](C)O1 [DOXORUBICIN] |  | 1.15 | 
O=c1[nH]cc(F)c(=O)[nH]1 [FLUOROURACIL] | 420 |  | 
COc1ccc2cc([C@H](C)C(=O)O)ccc2c1 [NAPROXEN] |  |  | concentration at 2 h [3]: > 300 µM
CC(=O)O[C@H]1C(=O)[C@@]2(C)[C@H]([C@H](OC(=O)c3ccccc3)[C@]3(O)C[C@H](OC(=O)[C@H](O)[C@@H](NC(=O)c4ccccc4)c4ccccc4)C(C)=C1C3(C)C)[C@]1(OC(C)=O)CO[C@@H]1C[C@@H]2O [PACLITAXEL] |  | 3.1 | 
